# Experimental data as given in US20250282736A1, “SMALL MOLECULE MODULATORS OF HUMAN PREGNANE X RECEPTOR” (ST. JUDE CHILDREN'S RESEARCH HOSPITAL, priority 2022, published 2025).
# Like-named read-outs stand apart in the source and are kept apart here.
# Experiments:
# [1] = target: T1, hPXR (Homo sapiens (Human), UniProt O75469); assay: hPXR binding assay; conditions: for inhibition at 10 µM: read-out: Binding (% inhibition at 10 μM)
# [2] = target: T1, hPXR; assay: cell-based hPXR antagonistic assay; conditions: for inhibition at 10 µM: read-out: Antagonist (% inhibition at 10 μM)
# [3] = target: T1, hPXR; assay: cell-based hPXR agonistic assay; conditions: for Agonist (% activation at 10 μM): rifampicin at 10 μM as 100% activation, DMSO (0.3%) as 0%
# [4] = target: T1, hPXR; assay: cell-based hPXR inverse agonistic assay; conditions: for inhibition at 10 µM: read-out: Inverse agonist (% inhibition at 10 μM)
# [5] = read-out: Binding (IC50/μM), hPXR binding assay
# [6] = read-out: Agonist (EC50/μM), cell-based hPXR agonistic assay
# T1 sequence (O75469 whole entry): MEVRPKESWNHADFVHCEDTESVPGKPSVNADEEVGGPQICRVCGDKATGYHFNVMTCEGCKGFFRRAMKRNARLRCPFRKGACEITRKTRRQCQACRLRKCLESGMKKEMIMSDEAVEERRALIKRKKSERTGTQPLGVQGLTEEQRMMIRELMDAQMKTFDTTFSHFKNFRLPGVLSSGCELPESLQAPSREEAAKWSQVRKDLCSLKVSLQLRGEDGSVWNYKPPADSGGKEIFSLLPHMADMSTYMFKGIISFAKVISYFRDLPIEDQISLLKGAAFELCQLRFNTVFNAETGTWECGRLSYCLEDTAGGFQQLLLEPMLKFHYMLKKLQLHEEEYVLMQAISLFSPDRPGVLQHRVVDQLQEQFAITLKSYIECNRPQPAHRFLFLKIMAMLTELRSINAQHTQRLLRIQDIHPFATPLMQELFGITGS
inhibition at 10 µM [1] [%],"IC50 [1, 5] [µM]",IC50 [2] [nM],Agonist (% activation at 10 μM) [3],"EC50 [3, 6] [µM]",IC50 [4] [nM],EC50 [3] [µM],IC50 [1] [µM],inhibition at 10 µM [2] [%],inhibition at 10 µM [4] [%],SMILES
18,0.053 ± 0.036,> 30000,(48 ± 1)%,1.48 ± 0.17,> 30000,,,,,CCCCOc1ccc(C(C)(C)C)cc1NC(=O)c1nnn(-c2cc(OC)ccc2F)c1C [H8]
28,1.31,> 30000,,,> 30000,> 30,,,,CCCCOc1ccc(C(C)(C)C)cc1NC(=O)c1nnn(-c2cc(OC)ccc2Br)c1C [H10]
10,0.12,> 30000,(16 ± 6)%,,> 30000,1.68 ± 0.34,,,,CCCCOc1ccc(C(C)(C)C)cc1NC(=O)c1nnn(-c2cc(OC)ccc2C)c1C [H11]
75,7.6 ± 2.06,> 30000,(44 ± 4)%,4.28 ± 1.36,> 30000,,,,,CCCCOc1ccc(C(C)(C)C)cc1NC(=O)c1nnn(-c2cccnc2)c1C [H12]
,,> 30000,,,> 30000,> 30,> 30,,,CCCCOc1ccc(C(C)(C)C)cc1NC(=O)c1nnn(-c2ccncc2)c1C [H13]
,,> 30000,(32 ± 4)%,2.77 ± 0.47,> 30000,,> 30,,,CCCCOc1ccc(C(C)(C)C)cc1NC(=O)c1nnn(-c2cc(OC)cc(OC)c2)c1C [H16]
,,> 30000,(43 ± 8)%,4.61 ± 1.18,> 30000,,> 30,,,CCCCOc1ccc(C(C)(C)C)cc1NC(=O)c1nnn(-c2ccc3c(c2)OCO3)c1C [H18]
89,0.0062 ± 0.0001,31,(8 ± 2)%,,> 30000,0.01,,84,,CCCC(CC)Oc1ccc(C(C)(C)C)cc1NC(=O)c1nnn(-c2ccccc2OC)c1C (centres unmarked) [I1]
38,8.47 ± 0.78,> 30000,,,> 30000,> 30,,,,COc1ccc(OC)c(-n2nnc(C(=O)Sc3ccc(NC(C)=O)cc3)c2C)c1 [K2]
,,> 30000,(61 ± 4)%,,> 30000,3.39 ± 0.14,> 30,,,COc1ccc(OC)c(-n2nnc(NC(=O)Nc3ccc(C(C)(C)C)cc3)c2C)c1 [K3]
24,0.39 ± 0.19,> 30000,(103 ± 5)%,,> 30000,1.45 ± 0.25,,,,COc1ccc(OC)c(-n2nnc(NC(=O)Nc3cccc(C(C)(C)C)c3)c2C)c1 [K4]
43,10.7 ± 0.23,> 30000,(32 ± 2)%,,> 30000,7.46 ± 1.11,,,,"COc1ccc(OC)c(-n2nnc(C(=O)NS(=O)(=O)c3ccc(C(C)(C)C)cc3)c2C)c1 [K5, N-((4-(tert-butyl)phenyl)sulfonyl)-1-(2,5-dimethoxyphenyl)-5-methyl-1H-1,2,3-triazole-4-carboxamide]"
97,0.0147 ± 0.0026,> 30000,(136 ± 26)%,,> 30000,0.021,,,,"COc1ccc(OC)c(-n2nnc(S(=O)(=O)Nc3cccc(C(C)(C)C)c3)c2C)c1 [K6, N-(3-(tert-butyl)phenyl)-1-(2,5-dimethoxyphenvl)-5-methyl-1H-1,2,3-triazole-4-sulfonamide]"
92,0.33,10700 ± 2390,(68 ± 5)%,,> 30000,0.39,,25,,COc1ccc(OC)c(-n2nnc(NS(=O)(=O)c3ccc(C(C)(C)C)cc3)c2C)c1 [K7]
70,0.14,1450 ± 200,(21 ± 3)%,,> 30000,0.19,,49,,COc1ccc(OC)c(-n2nnc(N(S(=O)(=O)c3ccc(C(C)(C)C)cc3)S(=O)(=O)c3ccc(C(C)(C)C)cc3)c2C)c1 [K8]
,,5440 ± 1000,,,> 30000,> 30,> 30,40,,COc1ccc(OC)c(-n2nnc(C(=O)Nc3cc(OCCOCCOCCOCCNC(=O)CCCC[C@@H]4SC[C@@H]5NC(=O)N[C@@H]54)cc(C(C)(C)C)c3)c2C)c1 [L1]
93,0.015 ± 0.003,6.9 ± 0.5,,,1.1 ± 0.5,> 30,,105,165,"CCC[C@H](CC)Oc1ccc(C(C)(C)C)cc1NC(=O)c1nnn(-c2cc(OC)ccc2OC)c1C [M1, (S)—N-(5-(Tert-Butyl)-2-(Hexan-3-yloxy)Phenyl)-1-(2,5-Dimethoxyphenyl)-5-Methyl-1H-1,2,3-Triazole-4-Carboxamide]"
88,0.019 ± 0.003,52 ± 10,,,8.4 ± 4,> 30,,103,130,"CCC[C@@H](CC)Oc1ccc(C(C)(C)C)cc1NC(=O)c1nnn(-c2cc(OC)ccc2OC)c1C [M2, (R)—N-(5-(Tert-Butyl)-2-(Hexan-3-yloxy)Phenyl)-1-(2,5-Dimethoxyphenyl)-5-Methyl-1H-1,2,3-Triazole-4-Carboxamide]"
77,0.013 ± 0.003,33 ± 4,,,3.4 ± 0.3,> 30,,107,106,"CCC[C@H](CC)Oc1ccccc1NC(=O)c1nnn(-c2cc(OC)ccc2OC)c1C [M3, (S)-1-(2,5-Dimethoxyphenyl)-N-(2-(Hexan-3-yloxy)Phenyl)-5-Methyl-1H-1,2,3-Triazole-4-Carboxamide]"
84,,6,,,1,> 30,0.003,112,142,"CCC[C@H](CC)Oc1ccc(C(=O)OC)cc1NC(=O)c1nnn(-c2cc(OC)ccc2OC)c1C [M4, Methyl (S)-3-(1-(2,5-Dimethoxyphenyl)-5-Methyl-1H-1,2,3-Triazole-4-Carboxamido)-4-(Hexan-3-yloxy)Benzoate]"
91,0.0078 ± 0.0001,120 ± 10,(69 ± 4)%,,> 30000,0.013 ± 0.01,,32,,"CCC[C@H](CC)Oc1ccc(C(C)(C)C)cc1NC(=O)c1nnn(-c2cc(OC)c(OC)cc2OC)c1C [M9, (S)—N-(5-(Tert-Butyl)-2-(Hexan-3-yloxy)Phenyl)-5-Methyl-1-(2,4,5-Trimethoxyphenyl)-1H-1,2,3-Triazole-4-Carboxamide]"
92,0.02 ± 0.005,23 ± 3,,,4.4 ± 1.5,> 30,,104,92,"CCC[C@H](CC)Oc1ccc(C(C)(C)C)cc1NC(=O)c1nnn(-c2cc(OC)c(F)cc2OC)c1C [M10, (S)—N-(5-(Tert-Butyl)-2-(Hexan-3-yloxy)Phenyl)-1-(4-Fluoro-2,5-Dimethoxyphenyl)-5-Methyl-1H-1,2,3-Triazole-4-Carboxamide]"
94,,65000 ± 28000,(92 ± 8)%,,> 30000,0.0066 ± 0.0002,0.045 ± 0.013,15,,"CCC[C@H](CC)Oc1ccc(C(C)(C)C)cc1NC(=O)c1nnn(-c2cc(C)c(OC)cc2OC)c1C [M11, (S)—N-(5-(Tert-Butyl)-2-(Hexan-3-yloxy)Phenyl)-1-(2,4-Dimethoxy-5-Methylphenyl)-5-Methyl-1H-1,2,3-Triazole-4-Carboxamide]"
90,0.23 ± 0.1,320 ± 20,,,65 ± 39,> 30,,99,97,"CCC[C@H](CC)Oc1ccc(C(C)(C)C)cc1NC(=O)c1nnn(-c2cc(Cl)c(Cl)cc2OC)c1C [M12, (S)—N-(5-(Tert-Butyl)-2-(Hexan-3-yloxy)Phenyl)-1-(4,5-Dichloro-2-Methoxyphenyl)-5-Methyl-1H-1,2,3-Triazole-4-Carboxamide]"

SMILES,inhibition at 10 µM [1] [%],"IC50 [1, 5] [µM]",IC50 [2] [nM],Agonist (% activation at 10 μM) [3],"EC50 [3, 6] [µM]",IC50 [4] [nM],EC50 [3] [µM],IC50 [1] [µM],inhibition at 10 µM [2] [%],inhibition at 10 µM [4] [%]
CCCC(C)Oc1ccc(C(C)(C)C)cc1NC(=O)c1nnn(-c2ccccc2OC)c1C (centres unmarked) [I2],88,0.0072 ± 0.0001,32,(23 ± 19)%,,> 30000,0.049 ± 0.008,,78,
CCC(C)Oc1ccc(C(C)(C)C)cc1NC(=O)c1nnn(-c2ccccc2OC)c1C (centres unmarked) [I3],88,0.0085 ± 0.0011,61 ± 11,(25 ± 3)%,,> 30000,0.066 ± 0.013,,66,
